# Test results as given in patent publication US10053452B2 (AMGEN INC., priority 2013, dated 2018).
# Experiments:
# [1] = Relationship / interconversion between bismesylate crystalline forms; format: physicochemical
# From the text: AMG 900 bismesylate salt crystalline From A was identified as a dihydrate; AMG 900 bismesylate salt crystalline From B was identified as a dihydrate; AMG 900 bismesylate salt crystalline From C was identified as a monohydrate; and AMG 900 bismesylate salt crystalline From D was identified as a monohydrate. […].
# [2] = Solubility of salt/crystal forms in 0.01N HCl over 24 hrs; format: physicochemical; details: slurry
# Method: (§1) An excess of solid material was stirred at 25° C. or 55° C. for 18-24 hrs in aqueous media, excipients or solvents as noted. At the appropriate time point, an aliquot of the sample was centrifuged. The supernatant was filtered through a PTFE syringe filter and analyzed by HPLC versus a standard curve. The solid was then analyzed by XRPD for identification of the form.
# [3] = Solubility studies in aqueous media, excipients or solvents (18-24 hrs, HPLC; solid form by XRPD); format: physicochemical; details: for solubility at 24 h: thermodynamic from solid
# Method: as §1
# [4] = Dog pK study; format: in vivo
# From the text: To this end, a various crystalline forms of different pharmaceutically acceptable salts of AMG 900 were investigated and made.
# [5] = Dynamic vapor sorption (DVS) moisture uptake; format: physicochemical
# Method: Moisture uptake of a given AMG 900 salt crystalline form was assessed by dynamic vapor sorption (DVS). Moisture sorption/desorption data was collected on a Surface Measurement System (SMS) DVS-Advantage vapor sorption analyzer (SMS, Alperton, Middlesex, UK). The sorption and desorption data was collected over a range of 0 to 95% relative humidity (RH) at 25° C. with 5-10% RH intervals under a nitrogen purge. Equilibrium criteria used for analysis were less than 0.002% weight change in 5 minutes, with a maximum equilibrium time of 120 minutes if the weight criterion was not met.
# [6] = Solid photostability (1×ICH dose for UV and visible light); format: physicochemical; details: 1×ICH dose for UV and visible light
# Method: For photostability studies, enough sample was placed in a open 100 mL glass crystallization dish and exposed to 1×ICH dose for UV and visible light. Samples were weighed out for HPLC, XRPD, TGA and DSC analysis as abve after the exposure to light.
# [7] = tested on: solid tumor; assay: Human Ph I clinical trial: active dose and MTD/DLT; details: oral
# [8] = Solid stability studies (storage at set temperature/humidity; HPLC, XRPD, TGA, DSC); format: physicochemical; details: for Assay (% w/w): acceptance 97.0-103.0; for physical and chemical stability of unmilled drug substance: up to 3 months, 30° C./65% RH and 40° C./75% RH
# Method: Stability data was obtained for up to 3 months storage at the long term storage condition of 30° C./65% RH and at the accelerated condition of 40° C./75% RH for unmilled drug substance.
# Another 10 mg was weighed into a 4 mL glass vial and placed under the same conditions. At each time point one flask was removed from the chamber or over, diluted with methanol to the 100 mL mark and analyzed by HPLC for purity and label claim % compared to the standard. Also at each time point one vial was removed from the chamber and the contents were analyzed by XRPD, TGA and/or DSC.
# [9] = tested on: solid ovarian cancerous tumor; assay: Human Ph I clinical trial, tumor response: ovarian tumor
# Method: Specifically, FIG. 32A illustrates diametric measurements along the short axis of the tumor dosed with 30 mg once daily over a period of two (2) cycles, ie., 4 week (28 days).
# [10] = Solid stability studies (storage at set temperature/humidity; HPLC, XRPD, TGA, DSC); format: physicochemical; details: for Total Impurities (%): acceptance < or = 2.0; for Assay (% w/w): acceptance 97.0-103.0; for Description: acceptance: White to brown powder
# [11] = tested on: stage IV solid endometrial cancerous tumor; assay: Human Ph I clinical trial, tumor response: endometrial tumor; details: CT
# From the text: FIGS. 31A and 31B are measurements of the same endometrial solid tumor depicted in FIGS. 30A and 30B, but with its size shown as measured alone the short axis by CT and calculated using RECIST 1.1.
# [12] = tested on: p-Histone H3; assay: p-Histone H3 in HeLa cells; details: Homo sapiens, read-out: IC50 p-Histone H3
# [13] = tested on: p-Histone H3; assay: p-Histone H3 in Jurkat cells; details: Homo sapiens, read-out: IC50 for p-Histone H3
# [14] = 30° C./65% RH, Initial Period Time 0
# [15] = platinum-sensitive ovarian cancer patient, 16 mg, then 8 mg (cycles 4-15), 12 mg (cycle 16) once daily, end of cycle 16
# [16] = up to 12 weeks, 25° C./60% RH, 40° C./60% RH, 40° C./75% RH and 60° C./Amb
structure (smiles),measurement,setting,value
Cc1csc(-c2nnc(Nc3ccc(Oc4ncccc4-c4ccnc(N)n4)cc3)c3ccccc23)c1 [N-(4-((3-(2-amino-4-pyrimidinyl)-2-pyridinyl)oxy)phenyl)-4-(4-methyl-2-thienyl)-1-phthalazinamine],stability of the crystalline form,[1],unstable
same,form conversion at room temperature,"[1]; room temperature, normal humidity",converts back to crystalline Form B
"Cc1csc(-c2nnc(Nc3ccc(Oc4ncccc4-c4ccnc(N)n4)cc3)c3ccccc23)c1 [bismesylate monohydrate form C, N-(4-((3-(2-amino-4-pyrimidinyl)-2-pyridinyl)oxy)phenyl)-4-(4-methyl-2-thienyl)-1-phthalazinamine]",form conversion with an increase in humidity,[1]; relative humidity at or greater than 50%,convert to the dihydrate form B
"Cc1csc(-c2nnc(Nc3ccc(Oc4ncccc4-c4ccnc(N)n4)cc3)c3ccccc23)c1 [bismesylate dihydrate form A, N-(4-((3-(2-amino-4-pyrimidinyl)-2-pyridinyl)oxy)phenyl)-4-(4-methyl-2-thienyl)-1-phthalazinamine]",solubility versus AMG 900 free base crystalline form A,[2],significant improvement in solubility
same,form conversion over time,[1]; room temperature in a capped vial,converts to form B
"Cc1csc(-c2nnc(Nc3ccc(Oc4ncccc4-c4ccnc(N)n4)cc3)c3ccccc23)c1 [free base crystalline form A of AMG 900, N-(4-((3-(2-amino-4-pyrimidinyl)-2-pyridinyl)oxy)phenyl)-4-(4-methyl-2-thienyl)-1-phthalazinamine]",solubility in water,[3]; water,poorly soluble
same,bioavailability in dogs,[4]; dogs,low
"Cc1csc(-c2nnc(Nc3ccc(Oc4ncccc4-c4ccnc(N)n4)cc3)c3ccccc23)c1 [AMG 900 bismesylate dihydrate form B, N-(4-((3-(2-amino-4-pyrimidinyl)-2-pyridinyl)oxy)phenyl)-4-(4-methyl-2-thienyl)-1-phthalazinamine]",form stability after slurry in various aqueous media and solvents,"[3]; 24 hrs, all media except aqueous pH 7 and pH 12",remain unchanged (stable)
same,solubility at 24 h,"[3]; DMF, organic solvent or mixture",> 12000 µg/mL
same,solubility at 24 h,"[3]; THF, organic solvent or mixture",12 µg/mL
same,solubility at 24 h,"[3]; acetone, organic solvent or mixture",20 µg/mL
same,solubility at 24 h,"[3]; aqueous MSA, aqueous buffer, pH 0.5 MSA",676 µg/mL
same,solubility at 24 h,"[3]; aqueous MSA, aqueous buffer, pH 1.0 MSA",> 7400 µg/mL
same,solubility at 24 h,"[3]; aqueous MSA, aqueous buffer, pH 1.5 MSA",3400 µg/mL
same,solubility at 24 h,"[3]; aqueous MSA, aqueous buffer, pH 2.0 MSA",1620 µg/mL
same,form after slurry,"[3]; aqueous pH 7, 24 hrs",converted to the free base form C hydrate
same,form after slurry,"[3]; aqueous pH 12, 24 hrs",converted to the free base form C hydrate
same,solubility at 24 h,"[3]; ethanol, organic solvent or mixture",> 12000 µg/mL
same,solubility at 24 h,"[3]; ethyl acetate, organic solvent or mixture",< 1 µg/mL
same,solubility at 24 h,"[3]; isopropyl alcohol, organic solvent or mixture",> 1 µg/mL
same,solubility at 24 h,"[3]; methanol, organic solvent or mixture",> 12000 µg/mL
same,solubility at 24 h,"[3]; methanol/water (9:1), organic solvent or mixture",> 12000 µg/mL
same,solubility at 24 h,"[3]; methyl ethyl ketone, organic solvent or mixture, Methyl ethyl keone",< 1 µg/mL
same,solubility at 24 h,"[3]; organic solvent or mixture, Acetonitrile (ACN)",383 µg/mL
same,solubility at 24 h,"[3]; organic solvent or mixture, Dichloroethane (DCE)",8 µg/mL
same,solubility at 24 h,"[3]; phosphate buffer, aqueous buffer, pH 7.0 Phosphate",< 1 µg/mL
same,solubility at 24 h,"[3]; phosphate buffer, aqueous buffer, pH 12.0 Phosphate",< 1 µg/mL
same,hygroscopicity,[5],non-hygroscopic
same,stability to humidity changes (DVS isotherm),[5]; above 10% RH,stable to humidity changes
same,chemical and physical stability to light,[6],chemically and physically stable
same,dose at which MTD's and DLT's were observed,[7],greater than 8 mg
same,once daily dose at which anti cancer activity was observed,"[7]; on-off schedule, ovarian and endometrial tumors",≥ 8 mg
same,Assay (% w/w),"[8]; 30° C./65% RH, 3 months",99.2 % w/w
same,Description,"[8]; 30° C./65% RH, 3 months, acceptance: White to brown powder",conforms
same,Assay (% w/w),[8]; [14],98.1 % w/w
same,Total Impurities (%),"[8]; 30° C./65% RH, Initial Period Time 0, acceptance < or = 2.0",0.35%
same,4-aminophenol content (ppm),"[8]; 30° C./65% RH, Initial Period Time 0, acceptance < or = 500",<20 ppm
same,physical and chemical stability of unmilled drug substance,[8]; listed as AMG 900 bis-mesylate dihydrate drug substance,remain within specifications
same,physical and chemical stability of unmilled drug substance,[8]; listed as AMG 900 bismesylate (dimethanesulfonate) salt crystalline Form B,stable
same,thermodynamic stability of the crystalline form,[1],thermodynamically stable form
same,decrease in CA-125,[9]; [15],45%
same,decrease in SLD (sum of long axis diameters) on CT,[9]; [15],16%
same,reduction of short axis diameter versus base line,"[9]; stage IV-B ovarian tumor patient, 30 mg once daily, 4 days on/10 days off, two cycles, week 4, RECIST 1.1",about 30%
same,Water content (%),"[10]; 30° C./65% RH, 3 months",5.1%
same,Total Impurities (%),"[10]; 30° C./65% RH, 3 months",0.21%
same,4-aminophenol content (ppm),"[10]; 30° C./65% RH, 3 months, acceptance < or = 500",<20 ppm
same,Water content (%),"[10]; 30° C./65% RH, 6 months",5.2%
same,Assay (% w/w),"[10]; 30° C./65% RH, 6 months",99.1 % w/w
same,Total Impurities (%),"[10]; 30° C./65% RH, 6 months",0.16%
same,4-aminophenol content (ppm),"[10]; 30° C./65% RH, 6 months, acceptance < or = 500",<20 ppm
same,Description,"[10]; 30° C./65% RH, 6 months",conforms
same,Water content (%),"[10]; 30° C./65% RH, 9 months",5.2%
same,Assay (% w/w),"[10]; 30° C./65% RH, 9 months",101.2 % w/w
same,Total Impurities (%),"[10]; 30° C./65% RH, 9 months",0.25%
same,4-aminophenol content (ppm),"[10]; 30° C./65% RH, 9 months, acceptance < or = 500",<20 ppm
same,Description,"[10]; 30° C./65% RH, 9 months",conforms
same,Water content (%),"[10]; 30° C./65% RH, 12 months",5.2%
same,Assay (% w/w),"[10]; 30° C./65% RH, 12 months",100.1 % w/w
same,Total Impurities (%),"[10]; 30° C./65% RH, 12 months",0.26%
same,4-aminophenol content (ppm),"[10]; 30° C./65% RH, 12 months, acceptance < or = 500",<20 ppm
same,Intermediate* content (ppm),"[10]; 30° C./65% RH, 12 months, acceptance < or = 500, intermediate is 4-(2-(4-aminophenoxy)pyridin-3-yl)pyrimidin-2-amine",171 ppm
same,Description,"[10]; 30° C./65% RH, 12 months",conforms
same,Water content (%),[10]; [14],5.0%
same,Description,[10]; [14],conforms
same,chemical stability (HPLC),[10]; [16],no degradation detected
same,"physical stability (XRPD, TGA and DSC)",[10]; [16],physically stable
same,decrease of long axis diameter versus base line,"[11]; endometrial tumor patient, 30 mg+GCSF once daily, 4 days on/10 days off, week 24, RECIST 1.0",approximately 50%
same,exposure in a dog pK study,[4]; dog,acceptable
"Cc1csc(-c2nnc(Nc3ccc(Oc4ncccc4-c4ccnc(N)n4)cc3)c3ccccc23)c1 [AMG 900, N-(4-((3-(2-amino-4-pyrimidinyl)-2-pyridinyl)oxy)phenyl)-4-(4-methyl-2-thienyl)-1-phthalazinamine]",IC50,[12]; 1 h,59 nM
same,IC50,[12],238 nM
same,IC50,[13]; 1 h,66 nM
same,IC50,[13]; 24 h,4 nM
same,reduction of short axis diameter,"[11]; same endometrial tumor, 30 mg once daily, week 16, eight cycles, RECIST 1.1",up to 40%
